The text below walks through data of patent publication US20260216174A1, “TREATMENT OF ER+ BREAST CANCER COMPRISING HOMOLOGOUS RECOMBINATION DEFICIENCY USING PARG INHIBITOR” (IDEAYA BIOSCIENCES, INC., priority 2023, published 2026).

As a reminder, the IC50 is the point on the concentration scale where inhibition reaches its midpoint.

For one test, the system named is HCC1428 tumors. In words: Cell line derived xenograft (CDX) study with HCC1428 tumors. It is filed as in vivo, BALB/c nude mice. On the procedure: For this xenograft, supplemental estradiol benzoate injections (40 μg/20 μl/mouse) are administered subcutaneously twice a week to BALB/c nude mice, starting one week prior to cell implantation and continuing through to the end of study. After implantation, HCC1428 tumor were allocated to treatment arms once a median tumor volume of about 181 mm^3 was reached. In Table 3A the abbreviation “p.o.” refers to oral administration and the abbreviation “QD×28” refers to administration once a day for 28 days.
Tumors were measured and mice were weighed twice a week during the experimental period. The tumor volume (mm3) was estimated using the formula: TV=a×b2/2, where “a” and “b” were the long and the short diameter of a tumor, respectively. The Tumor volumes were used to calculate tumor growth inhibition (TGI, an indicator of antitumor activity) using the formula: TGI %: (1−{T/T0/Ct/C0}/1−{C0/Ct})×100 where Tt=median tumor volume of treated at time t, T0=median tumor volume of treated at time 0, Ct=median tumor volume of control at time t and C0=median tumor volume of control at time 0.
For this xenograft, supplemental estradiol benzoate injections (40 μg/20 μl/mouse) are administered subcutaneously twice a week to BALB/c nude mice, starting one week prior to cell implantation and continuing through to the end of study. After implantation, HCC1428 tumor were allocated to treatment arms once a median tumor volume of about 181 mm^3 was reached. In Table 4A the abbreviation “p.o.” refers to oral administration and the abbreviation “QD×28” refers to administration once a day for 28 days.
Tumors were measured and mice were weighed twice a week during the experimental period. The tumor volume (mm^3) was estimated using the formula: TV=a×b2/2, where “a” and “b” were the long and the short diameter of a tumor, respectively. The Tumor volumes were used to calculate tumor growth inhibition (TGI, an indicator of antitumor activity) using the formula: TGI %: (1−{T/T0/Ct/C0}/1−{C0/Ct})×100 where Tt=median tumor volume of treated at time t, T0=median tumor volume of treated at time 0, Ct=median tumor volume of control at time t and C0=median tumor volume of control at time 0. […] At 100 mg/kg QD the mean tumor volume achieved was 116 mm3, on Day 71. The tumor growth inhibition (TGI) of these treatments compared with vehicle group on Day 28 or 71 of the treatment is summarized in Table 4B (See FIG. 3).

Another test relates to MDA-MB-415. The test can be described thus: Cellular antiproliferative response, Assay 1 (nuclear counts). It is filed as cell-based. The settings on record: Homo sapiens; MDA-MB-415, Wild Type, Assay 1, 5 population doublings; read-out: Log10 (IC50) (converted). On the procedure: (§1) Compound A was tested in a cell line panel. Cell lines were obtained from several different sources such as the American Type Culture Collection, Korean Cell Line Bank and Japanese Collection of Research Bioresources Cell Bank and cultured in the media as recommended by the source cell banks. All cell lines were grown at 37° C. at 5% CO2 and were passaged once or twice weekly with 0.25% Trypsin-EDTA (Fisher Scientific #25200056) and re-plated in 75 cm^2 culture flasks (Corning #3814).
(§2) The cell lines were plated in 96 well plates (Corning #3904) at density of 1000 cells/well. DMSO dissolved Compound A was then added using the TECAN liquid dispenser to generate a 9-point dose curve with a 3-fold dilution and 10 μM starting, top concentration. After 5 population doublings, the cell lines were treated with 5 μM of Vybrant DyeCycle Green (Life Technologies #V35004), incubated for 60 minutes and imaged using the Incucyte® S3 system to determine the nuclear counts. For all cell lines, the nuclear counts were normalized to the DMSO treated wells and the IC50 was determined using the standard four parametric dose response equation in GraphPad Prism Software.

The subject of another test is Hs 578T. The test is described as above. The settings on record: Homo sapiens, Wild Type, Assay 1, 5 population doublings, read-out: Log10 (IC50) (converted). It is filed as cell-based. On the procedure:
as §1, §2

A further test concerns SK-BR-3. The test is described as above. Format: cell-based. As to conditions: Homo sapiens; SK-BR-3, Wild Type, Assay 1, 5 population doublings; read-out: Log10 (IC50) (converted). On the procedure: as §1, §2
The subject of a further test is BT-549. Described as above. It is filed as cell-based. The settings on record: Homo sapiens; BT-549, Wild Type, Assay 1, 5 population doublings; read-out: Log10 (IC50) (converted). On the procedure: as §1, §2
For another test, the system named is KPL-1. The description is as above. It is filed as cell-based. As to conditions: KPL-1, Wild Type, Assay 1, 5 population doublings; read-out: Log10 (IC50) (converted). On the procedure: as §1, §2
Another test concerns MCF7. The description is as above. It is filed as cell-based. As to conditions: Homo sapiens; MCF7, Wild Type, Assay 1, 5 population doublings; read-out: Log10 (IC50) (converted). On the procedure:
as §1, §2

In another test the test system is CAMA-1. Described as above. It is filed as cell-based. As to conditions: Homo sapiens; CAMA-1, Wild Type, Assay 1, 5 population doublings; read-out: Log10 (IC50) (converted). On the procedure: as §1, §2
Another test concerns BT-20. The test is described as above. Format: cell-based. As to conditions: Homo sapiens; BT-20, Wild Type, Assay 1, 5 population doublings; read-out: Log10 (IC50) (converted). On the procedure: as §1, §2
The next test relates to MDA-MB-231. The description is as above. Format: cell-based. As to conditions: Homo sapiens; MDA-MB-231, Wild Type, Assay 1, 5 population doublings; read-out: Log10 (IC50) (converted). On the procedure: as §1, §2
The subject of a further test is MDA-MB-453. The description is as above. It is filed as cell-based. The settings on record: Homo sapiens; MDA-MB-453, Wild Type, Assay 1, 5 population doublings; read-out: Log10 (IC50) (converted). On the procedure: as §1, §2
The test system of a further test is T-47D. The description is as above. Format: cell-based. As to conditions: Homo sapiens, T47D, Wild Type, Assay 1, 5 population doublings, read-out: Log10 (IC50) (converted). On the procedure: as §1, §2
Setting [1] is: 30 mg/kg p.o. QD × 28, Day 28, vs vehicle.

With `C[C@H]1CN(c2cc(S(=O)(=O)NC3(C)CC3)cc3c2cnn3-c2nnc(C(F)F)s2)C[C@H](C)N1` [Compound A, 1-(5-(difluoromethyl)-1,3,4-thiadiazol-2-yl)-4-((3S,5S)-3,5-dimethylpiperazin-1-yl)-N-(1-methylcyclopropyl)-1H-indazole-6-sulfonamide], the “TGI (%) D28 or 71” value amounted to 23% in the test with HCC1428 tumors (3 mg/kg p.o. QD × 28, Day 28, vs vehicle); 54% with HCC1428 tumors (setting [1]); 103% with HCC1428 tumors (100 mg/kg p.o. QD × 72, Day 71, vs vehicle). Further, the mean tumor volume in the test on HCC1428 tumors (Compound A study, 3 mg/kg QD, Day 28) is given as 836 mm^3; in the test with HCC1428 tumors (Compound A study, 30 mg/kg QD, Day 28) it was 570 mm^3; in the test on HCC1428 tumors (Compound A study, 100 mg/kg QD, Day 71) it was 116 mm3. Moreover, the IC50 with MDA-MB-415 was 2830 nM; with Hs 578T, 3000 nM; in the test with SK-BR-3, 131 nM; with BT-549 it was 983 nM; in the test with KPL-1, 431 nM; with MCF7 it was 2380 nM. Further, the IC50 with CAMA-1 is 844 nM; in the test with BT-20, 2410 nM; with MDA-MB-231, 850 nM; in the test with MDA-MB-453, 2020 nM; in the test on T-47D, 3090 nM.
Turning to `CC(C)C(=O)N1CCN(c2cc(S(=O)(=O)NC3(C#N)CC3)cc3c2cnn3-c2nnc(C(F)F)s2)C[C@H]1C` [Compound B], the “TGI (%) D28” value in the test with HCC1428 tumors (setting [1]) amounted to 81.7%; in the test with HCC1428 tumors (100 mg/kg p.o. QD × 28, Day 28, vs vehicle) it was 89.0%; with HCC1428 tumors (300 mg/kg p.o. QD × 28, Day 28, vs vehicle), 94.6%. Also, the mean tumor volume is reported as 165 mm^3 in the test with HCC1428 tumors (Compound B study, 30 mg/kg QD, Day 28); 103 mm^3 in the test on HCC1428 tumors (Compound B study, 100 mg/kg QD, Day 28); 50 mm^3 with HCC1428 tumors (Compound B study, 300 mg/kg QD, Day 28).
